Assay results: patent US7741520B2, “Sulfonanilide analogs as selective aromatase modulators (SAMs)” (The Ohio State University Research Foundation, priority 2006, dated 2010)

Columns and labels:
[1] = test system: aromatase activity in SK-BR-3 breast cancer cells; experiment: Aromatase tritiated water-release assay in SK-BR-3 cell lines (first compound set); type: cell-based, human; conditions: SK-BR-3 cells
[2] = test system: PGE2 production in MDA-MB-231 cells; experiment: Enzyme immunoassay of PGE2 in MDA-MB-231 cells (COX-2 inhibitory activity); type: cell-based, human; conditions: 25 μM, 24 h (FIG. 4)
Description: Enzyme Immunoassay of PGE2 in MDA-MB-231 Cells. MDA-MB-231 cells were obtained from ATCC (Rockville, Md.). Cell cultures were maintained in phenol red-free custom media (MEM, Earle's salts, 1.5× amino acids, 2× nonessential amino acids, L-glutamine, 1.5× vitamins, Gibco BRL) supplemented with 10% fetal bovine serum (FBS), 2 mM L-glutamine and 20 mg/L gentamycin. To study PGE2 synthesis in cell culture media, experiments were performed in […] Petri dishes. An aliquot of MDA-MB-231 cells (15×10^4 cells) were added to each dish and then incubated overnight to allow the cells to adhere to the dish. After that, cells were serum starved in defined media for 24 h. This step was followed by replacement of media with fresh media containing either vehicle (DMSO) or the indicated concentration of agents. After 24 h incubation at 37° C. the media were collected and the amount of PGE2 was determined by ELISA (Cayman Chemical) according to the protocol provided by the manufacturer. PGE2 concentration was normalized to total protein. Total proteins were extracted from adhered cells by 30 min treatment with 0.5 M NaOH at room temperature and shaking. Protein concentrations in these extracts were determined using a protein assay method (Bio-Rad Laboratories, Inc., Hercules, Calif.).

[3] = test system: CYP19 mRNA expression in SK-BR-3 cells; experiment: CYP19 mRNA expression by real-time RT-PCR in SK-BR-3 cells; type: cell-based, human; conditions: 25 μM, 24 h (FIG. 5)
Description: (§1) RNA Extraction. Total RNA was isolated using the TRIzol reagent according to the manufacturer's protocol. Total RNA pellets were dissolved in DNase- and RNase-free water and quantitated using a spectrophotometer. The quality of RNA samples was determined by electrophoresis through agarose gels and staining with ethidium bromide; the 18S and 28S rRNA bands were visualized under ultraviolet light.
(§2) cDNA Synthesis. Isolated total RNA (2 μg) was treated with DNase I Amplification grade, according to the recommended protocol to eliminate any DNA before reverse transcription. Treated total RNA was denatured at 65° C. for 5 min in the presence of 2.5 ng/μL random hexamers and 0.5 mM dNTP mix. The samples were snap-cooled on ice and centrifuged briefly. Complementary DNA (cDNA) was synthesized using Superscript II reverse transcriptase according to the recommended protocol. Briefly, the reactions were conducted in the presence of 1× First-Strand Buffer and 20 mM DTT at 42° C. for 50 min and consequently inactivated at 70° C. for 15 min. The cDNA generated was used as a template in realtime PCR reactions.
Real-Time PCR. Real-time PCR was performed using the Opticon 2 system from MJ Research (Waltham, Mass.). For the CYP19 total gene the PCR reaction mixture consisted of Taqman Universal PCR Master Mix (Applied Biosystems), 600 nM of CYP19 primer (sense: 5′-TGTCTCTTTGTTCTTCATGCTATTTCTC-3′ (SEQ ID NO: 1); antisense: 5′-TCACCAATAACAGTCTGGATTTCC-3′) (SEQ ID NO: 2); 250 nM Taqman probe (6FAM 5′-TGCAAAGCACCCTAATGTTGAAGAGGCAAT-3′TAMRA) (SEQ ID NO: 3) (Invitrogen), 18S rRNA (Applied Biosystems, Foster City, Calif.), and 2.0 μL of each RT sample in a final volume of 20 μL. The Taqman probe was designed to anneal to a specific sequence of the aromatase gene between the forward and the reverse primers. Cycling conditions were 50° C. for 2 mm and 95° C. for 10 mm, followed by 50 cycles at 95° C. for 15 s and 60° C. for 1 mm.
as §1, with “extraction.” for “Extraction.”, “DNase,” for “DNase- and”
as §2, with “synthesis.” for “Synthesis.”, “real-time” for “realtime”
Real-time PCR. Real-time PCR was performed using the Opticon™ 2 system from MJ Research (Waltham, Mass.). For the CYP19 total gene the PCR reaction mixture consisted of Taqman® Universal PCR Master Mix (Applied Biosystems), 600 nM of CYP19 primer (sense: 5′-TGTCTCTTTGTTCTTCATGCTATTTCTC-3′ (SEQ ID NO: 1); antisense: 5′-TCACCAATAACAGTCTGGATTTCC-3′) (SEQ ID NO: 2); 250 nM Taqman probe (6FAM 5′-TGCAAAGCACCCTAATGTTGAAGAGGCAAT-3′TAMRA) (SEQ ID NO: 3) (Invitrogen), and 2.0 μL of each cDNA sample in a final volume of 20 μL. […]

[4] = test system: aromatase activity in SK-BR-3 breast cancer cells; experiment: Aromatase tritiated water-release assay in SK-BR-3 cell lines (first compound set); type: cell-based, human; conditions: SK-BR-3 cells; for IC50: 24 h treatment, five concentrations, each in triplicate, read-out: IC50 (μM), suppression of aromatase activity in SK-BR-3 breast cancer cells
Description: Aromatase Tritiated Water-Release Assay in SK-BR-3 Cell Lines. SK-BR-3 cells were obtained from ATCC (Rockville, Md.). Cell cultures were maintained in phenol red-free custom media (MEM, Earle's salts, 1.5× amino acids, 2× nonessential amino acids, L-glutamine, 1.5× vitamins, Gibco BRL) supplemented with 10% fetal bovine serum (FBS), 2 mM L-glutamine, and 20 mg/L gentamycin. Measurement of aromatase enzyme activity was based on the tritium water release assay. 24 Cells in 100 mm Petri dish were treated with 0.1% DMSO (control), and inhibitors at the indicated concentrations. After 24 h, the media was changed and the cells were incubated with 100 nM [1â-3H]-androst-4-ene-3,17-dione ([…]) for 3 h. Subsequently, the reaction mixture was removed, and proteins were precipitated using 10% trichloroacetic acid at 42° C. for 20 min. After a brief centrifugation, the media was extracted three times with an equal amount of chloroform to extract unused substrate and further dextran-treated charcoal. After centrifugation, a 250-μL aliquot containing the product was counted in 5 mL of liquid scintillation mixture. Results were corrected for blanks and for the cell contents of culture flasks, and results were expressed as picomoles of 3H2O formed per hour incubation time per million live cells (pmol/h/10^6 cells). To determine the amount of cells in each flask, the cells were trypsinized and analyzed using the diphenylamine DNA assay adapted to a 96-well plate. (Natarajan N.; Shambaugh, G. E., 3rd; Elseth K. M.; Haines G. K.; Radosevich J. A. Adaptation of the diphenylamine (DPA) assay to a 96-well plate tissue culture format and comparison with the MTT assay. Biotechniques 1994, 17, 166-171; incorporated herein by reference). IC50 sigmoidal dose-response data were analyzed with Microsoft Excel and the Graphpad Prism (Version 3.0) program.

Compound | time-course of suppression of aromatase activity ([1]; 2 μM) | PGE2 production (COX-2 inhibitory activity) [2] | CYP19 gene expression relative to control [3] | IC50 [4] | time-course of suppression of aromatase activity ([1]; 10 μM) | time-course of suppression of aromatase activity ([1]; 10 nM) | increase of aromatase activity after removing the drug ([4]; letrozole 10 nM, after removal of drug) | melting point
CS(=O)(=O)Nc1ccc([N+](=O)[O-])cc1OC1CCCCC1 [NS-398, N-(2-Cyclohexyloxy-4-nitrophenyl)methanesulfonamide, reference compound] | prolonged reversible suppression of aromatase | significantly decrease in PGE2 production | significantly decreased CYP19 gene expression | 0.68 µM |  |  |  | 
C[C@@H]1C[C@@H]([C@H](O)CC2CC(=O)NC(=O)C2)C(=O)[C@@H](C)C1 [Cycloheximide] |  |  |  |  | showed similar results |  |  | 
N#Cc1ccc(C(c2ccc(C#N)cc2)n2cncn2)cc1 [letrozole, reference compound] |  |  |  |  |  | acute inhibition | 150% | 
CCC(CC)Oc1cc([N+](=O)[O-])ccc1NS(C)(=O)=O [Compound 13, N-(2-(1-Ethyl-propyloxy-4-nitrophenyl))methanesulfonamide] |  | significantly decrease in PGE2 production | significantly decreased CYP19 gene expression | 0.3 µM |  |  |  | 100 to 102 °C
CN(c1ccc([N+](=O)[O-])cc1OC1CCCCC1)S(C)(=O)=O [Compound 17, N-Methyl-N-(2-cyclohexyloxy-4-nitrophenyl)methanesulfonamide] | prolonged reversible suppression of aromatase | did not show any inhibitory activity | significantly decreased CYP19 gene expression | 0.47 µM |  |  |  | 129 to 132 °C
CCC(CC)Oc1cc([N+](=O)[O-])ccc1N(C)S(C)(=O)=O [Compound 22, N-Methyl-N-(2-(1-ethyl-propyloxy-4-nitrophenyl))methanesulfonamide] |  | did not show any inhibitory activity | significantly decreased CYP19 gene expression | 0.23 µM |  |  |  | 89 to 90 °C
